How the values were obtained:
[1] = test system: DENV-2/Rega lab strain; assay: AG129 mouse viremia model, low viral input (10^2 PFU), viral load kinetics, pre-exposure prophylaxis; assay type: in vivo, AG129 mice; details: for median serum viral load over all 11 days: LOD=2.59 log10 copies/mL
Description: In this experiment, lower viral inputs were used (10^2 PFU), compared with the standard viremia experiments with a high viral input (10^6 PFU). 10^2 PFU was selected as it was the lowest viral load leading to a Dengue infection in the mouse model. Using a lower viral input still results in 100% infection of the mice, but the peak viral load is postponed with 1 to 2 days, which more closely mimics a natural human infection (Clapham et al., 2014 and Sim et al., 2015). The mice were treated during 6 consecutive days.
Animals were infected i.p. with 10^2 PFU DENV-2/Rega lab strain and treated for six consecutive days twice daily with compound (a) by oral gavage (FIG. 5).
The mice were divided in four treatment groups (n=16/group) representing the following treatment regimens: • (i) Vehicle 80%/20% PEG400/H2O, • (ii) compound (a): 10 mg/kg/dose b.i.d. p.o. • (iii) compound (a): 1 mg/kg/dose b.i.d. p.o. • (iv) compound (a): 0.1 mg/kg/dose b.i.d. p.o.
Daily blood samples were collected to follow the viral load over time. Blood collection, for viral RNA load detection, was performed in two alternating sub-groups of mice. Each sub-group comprised half of the mice (n/2=8) from each of the treatment groups (i) to (iv). Blood was collected from a first sub-group at day 1, 3, 5 and 8 p.i. and from a second sub-group at day 2, 4, 6 and 11 p.i. At day 8 p.i., mice of the first sub-group were sacrificed while those of the second sub-group were sacrificed at day 11 p.i. […]
Alternating sub-groups were used to enable daily blood collections. Blood for viral RNA load detection was collected from mice in two alternating sub-groups. Each sub-group comprised half of the mice (n/2=8) from each of the treatment groups (i-vi). Blood was collected from a first sub-group at days 1, 3, 5 and 8 p.i. and from a second sub-group at days 2, 4, 6 and 11 p.i. Blood collection was always performed just before the next administration of the compound. At day 8 p.i., half of the mice in each treatment group (n=8/group) were sacrificed. The remaining mice in each treatment group (n=8/group) were sacrificed at day 11 p.i (FIG. 16 Y).

[2] = test system: DENV-2/Rega lab strain; assay: AG129 mouse viremia model, high viral input (10^6 PFU), pre-exposure prophylaxis; assay type: in vivo, AG129 mice; details: day 3 p.i.; for viral load reduction in serum / median viral load reduction in serum: 10^6 PFU, vs vehicle
Text: The AG129 mouse model is a well-established model to study the antiviral effect of compounds against DENV in vivo (Zompi and Harris, 2012). These 129/Sv mice are deficient for both IFN-α/β and IFN-γ receptors, enabling peripheral viral replication upon intravenous (i.v.) or subcutaneous (s.c.) infection with DENV (Johnson and Roehrig, 1999). […]
Total RNA from serum was extracted using the NucleoSpin RNA virus kit according to the manufacturer's protocol (Macherey-Nagel, Düren, Germany). The viral RNA load was determined by one-step TaqMan RT-qPCR (master mix from Eurogentec, Seraing, Belgium). […]
In a similar setup as for the b.i.d. dosing studies, the in vivo efficacy was studied in the AG129 standard viremia model against DENV-2 with high viral inoculum and with compound (a) q.d. administration. Animals were i.p. infected with 10^6 PFU DENV-2/Rega lab strain in a volume of 200 μL. Animals were treated by administering compound (a) by oral gavage with a first administration at one hour prior to infection. The treatment continued for three consecutive days with one administration of compound (a) every 24 hours (once a day or q.d.). At day 3 post infection (p.i.), the mice were euthanized, and blood was collected (FIG. 3). The viral RNA load was determined as outlined in example 1.
The mice were divided in 5 groups (n=8/group) representing the following treatment regimens: • (i) Vehicle 80%/20% PEG400/H2O, • (ii) reference compound (2′CMC, 50 mg/kg per dose, b.i.d., s.c.), • (iii) compound (a): 0.3 mg/kg/dose q.d. • (iv) compound (a): 3 mg/kg/dose q.d. • (v) compound (a): 30 mg/kg/dose q.d. […]
The mice were divided in several groups (n=8/group for the viremia study and n=10/group for the survival study) representing the following treatment regimens: • (i) vehicle, 80%/20% PEG400/H2O • (ii) compound (b): 30 mg/kg/dose b.i.d. • (iii) compound (b): 10 mg/kg/dose b.i.d. • (iv) compound (b): 3 mg/kg/dose b.i.d. • (v) compound (b): 1 mg/kg/dose b.i.d.

SMILES: COc1cc(NC(C(=O)c2c[nH]c3ccc(OC(F)(F)F)cc23)c2ccc(Cl)cc2OC)cc(S(C)(=O)=O)c1 (stereo not drawn) [compound (a)]
- delay of peak viral load versus vehicle ([1]; 0.1 mg/kg/dose b.i.d. p.o., 6 days, 10^2 PFU): ~ 1 day
- viral load reduction compared with vehicle ([1]; 0.1 mg/kg/dose b.i.d. p.o., day 5, 10^2 PFU): 0.50 log10 copies/mL
- viral load over time ([1]; 0.1 mg/kg/dose q.d. p.o., 10^2 PFU): comparable to the vehicle-treated viral load curve
- viral load reduction compared to vehicle-treated mice ([1]; 0.3 mg/kg/dose q.d. p.o., day 5, 10^2 PFU): 1.6 log10 copies/mL
- course of viral load after day 5 ([1]; 0.3 mg/kg/dose q.d. p.o., up to day 11, 10^2 PFU): no further decline in viral load up to day 11
- median serum viral load over all 11 days ([1]; 0.6 mg/kg/dose q.d. p.o., 6 days, 10^2 PFU): undetectable levels
- viral load in the mice over all the days ([1]; 1 mg/kg/dose b.i.d. p.o., 6 days, 10^2 PFU): undetectable levels
- median serum viral load over all 11 days ([1]; 1 mg/kg/dose q.d. p.o., 6 days, 10^2 PFU, 1 viral rebound at day 8): undetectable levels
- median viral load at viral rebound ([1]; 1 mg/kg/dose q.d. p.o., day 8, 10^2 PFU): 3.78 log10 copies/mL
- median serum viral load over all 11 days ([1]; 3 mg/kg/dose q.d. p.o., 6 days, 10^2 PFU): undetectable levels
- viral load in the mice over all the days ([1]; 10 mg/kg/dose b.i.d. p.o., 6 days, 10^2 PFU): undetectable levels
- median serum viral load over all 11 days ([1]; 10 mg/kg/dose q.d. p.o., 6 days, 10^2 PFU): undetectable levels
- median serum viral load over all 11 days ([1]; 30 mg/kg/dose q.d. p.o., 6 days, 10^2 PFU): undetectable levels
- viral load reduction in serum ([2]; 0.1 mg/kg/dose b.i.d. p.o.): 0.47 log10 copies/mL
- median viral load reduction in serum ([2]; 0.3 mg/kg/dose q.d. p.o.): 0.7 log10 copies/mL
- median viral load reduction in serum ([2]; 3 mg/kg/dose q.d. p.o.): 3.1 log10 copies/mL
- viral load reduction in serum ([2]; 30 mg/kg/dose b.i.d. p.o.): 4.4 log10 copies/mL
- median viral load reduction in serum ([2]; 30 mg/kg/dose q.d. p.o.): 4.5 log10 copies/mL
- viral load reduction in serum compared with the vehicle-treated group, significance ([2]; all doses except 0.1 (0.3, 1, 3, 10, 30 mg/kg/dose b.i.d.), p<0.001): significant viral load reduction

SMILES: COc1cc(NC(C(=O)N2CCc3ccc(OC(F)(F)F)cc32)c2ccc(Cl)cc2)cc(OCCCC(=O)O)c1 (stereo not drawn) [compound (b)]
- reduction of viral RNA levels at peak viremia ([1]; compound (b) 0.3 mg/kg b.i.d. p.o., 10^2 PFU): 0.8 log10
- reduction of viral RNA levels at peak viremia ([1]; compound (b) 1 mg/kg b.i.d. p.o., 10^2 PFU): 1.8 log10
- viral RNA levels in serum ([1]; compound (b) 3 mg/kg/dose b.i.d. p.o., 6 days, 10^2 PFU): undetectable levels
- viral RNA levels in serum ([1]; compound (b) 10 mg/kg/dose b.i.d. p.o., 6 days, 10^2 PFU): undetectable levels
- viral RNA levels in serum ([1]; compound (b) 30 mg/kg/dose b.i.d. p.o., 6 days, 10^2 PFU): undetectable levels
- viral load reduction in serum ([2]; compound (b) 1 mg/kg per dose b.i.d. p.o.): 0.70 log10 copies/mL
- viral load reduction in serum ([2]; compound (b) 30 mg/kg per dose b.i.d. p.o.): 3.8 log10 copies/mL
- viral load reduction compared with the vehicle-treated group, significance ([2]; compound (b), all four doses (1, 3, 10, 30 mg/kg per dose b.i.d.), p<0.05): significant viral load reduction

From patent US12702657B2, “Treatment and prevention of dengue disease” (Janssen Pharmaceuticals, Inc., priority 2019, dated 2026)
